[DAP] = 2,6-diaminopurine base (2-amino-2'-deoxyadenosine) replacing adenine
Experiments:
[1] = tested on: common Beta chain of human GM-CSF, IL-3 and IL-5 receptor; experiment: Semi-quantitative RT-PCR of common beta chain mRNA in TF-1 cells treated with antisense; assay type: cell-based; details: TF1 cells; compared with AS107 containing adenosine
Description: (§1) Experiments were performed to assess whether antisense oligonucleotides described in international application WO 99/66037 (incorporated herein) directed against the common beta sub-unit of the IL-3, IL-5 and GM-CSF receptor, could inhibit the expression and the function of this receptor when modified by replacing adenosine by either 2-amino-2′-deoxyadenosine or inosine. TF-1 and U937 cells express high levels of GM-CSF receptors. In addition, TF-1 cells are dependent on GM-CSF for survival. These cells were cultured in RPMI 1640 supplemented with 10% heat-inactivated fetal calf serum, penicillin, streptomycin and 1-glutamine at 37° C. in 5% CO2 (the TF-1 cells were supplemented with GM-CSF). For 12 hours they were either cultured in medium alone or medium with sense (107S: 5′-ACCAT CCCGCTGCAGACCC-3′ (SEQ ID NO:19) or antisense (107A: 5′-GGGTCTGCAGCGGGATGGT-3′; SEQ ID NO:20) oligonucleotides to the common beta sub-unit of the IL-3, IL-5 and GM-CSF receptor. The sequence for 107A-DAP was: 5′-GGGTCTGCDapGCGGGDapTGGT-3′ (SEQ ID NO:21); the sequence for 107A-inosine (107A-I) was: 5′-GGGTCTGCIGCGGGIT GGT-3′ (SEQ ID NO:22). The cells were retrieved and washed 3 times. RNA was then retrieved and the presence of the beta chain of the receptor was assessed by semi-quantitative RT-PCR.

[2] = tested on: common Beta chain of human GM-CSF, IL-3 and IL-5 receptor; experiment: Semi-quantitative RT-PCR of common beta chain mRNA in U937 cells treated with antisense; assay type: cell-based; details: compared with AS107 containing adenosine, G3PDH housekeeping gene
Description: as §1, with “For 12 hours they were either cultured in medium alone or medium with sense (107S: 5′-ACCAT CCCGCTGCAGACCC-3′ (SEQ ID NO:19) or antisense (107A: 5′-GGGTCTGCAGCGGGATGGT-3′; SEQ ID NO:20) oligonucleotides to the common beta sub-unit of the IL-3, IL-5 and GM-CSF receptor.” left out

[3] = tested on: human immunodeficiency virus (HIV); details: Balzarini et al. 1987; cited from earlier work
lungs/airways = details: in vivo; cited from earlier work

For “5′-GGGTCTGCDapGCGGGDapTGGT-3′ (DNA GGGTCTGCNGCGGGNTGGT; DNA, [DAP] at 9, 15, backbone and methylation of C not given here) [AS107-DAP]”, the “blocking mRNA expression of the common Beta chain, semi-quantitative PCR” value [1] was “at least equally effective” and the “blocking the mRNA for the common Beta chain, semi-quantitative PCR” value [2] was “at least equally effective”.
In the case of Nc1nc(N)c2ncn([C@H]3CC[C@@H](CO)O3)c2n1 [2-amino-2′,3′-dideoxyadenosine], the “inhibition of HIV replication in vitro” value [3] is listed as “capable of selectively inhibiting”.
For OC[C@H]1O[C@@H](n2cnc3c(O)ncnc32)[C@H](O)[C@@H]1O [inosine], the “bronchoconstriction of the lungs/airways compared to adenosine” value (lungs/airways) is given as “does not cause bronchoconstriction”.
